{"source": "paper PMC8577775", "about": "“Small molecule allosteric inhibitors of RORγt block Th17-dependent inflammation and associated gene expression in vivo” (PLoS ONE, 2021)", "key": {"PDAC PDO model T020P": {"system": "PDAC PDO model T020P", "test": "In vitro organoid growth assay (CellTiter-Glo 3D), T020P", "assay_type": "cell-based, human", "conditions": "organoid growth assay, up to 30 μM", "procedure": "Patient derived organoids were established as previously described. Briefly, PDX tumor chunks were minced then enzymatically digested into single cells by using a tumor dissociation Kit (Miltenyi, Cat# 130-095-929). Mouse and human cells were separated through magnetic separation, and isolated tumor cells were cultured on Matrigel-coated dishes. […]\nOrganoids were isolated and dissociated as described above. Cell numbers were counted by trypan blue exclusion and 5000 cells per well were plated on the Matrigel coated and pre-warmed 96-well plates. […] 100 μl of CellTiter-Glo® 3D reagent (Promega cat# G9682) was added to each well after desired time points and luminescence signal measured after 30 minutes.\nSupplementary file pone.0248034.s010.tif: S6 Fig Schematic of Patient-derived organoids (PDO) growth & formation assays. […] After the indicated treatment schedule organoid growth or formation was assessed by CTG assay. […]"}, "[1]": {"system": "IMQ-induced skin inflammation in Balb/c mice", "test": "Imiquimod (IMQ)-induced skin inflammation model", "assay_type": "in vivo, mouse", "conditions": "day 4; for ear thickness: control-treated 0.17 ± 0.002 mm", "procedure": "For IMQ-induced skin inflammation, wild-type (WT) Balb/c female mice, 5–8 weeks of age, were purchased from Charles River Laboratories. All mice were housed in pathogen-free conditions at Bristol Myers Squibb (Cambridge, MA). Aldara cream containing 5% imiquimod (Patterson Veterinary Supply, Inc; Devens, MA) was applied to the ears daily (11–14 mg) for 3 days. Mice were treated twice daily (BID) on days 1–4 per os (PO) with vehicle (0.5% methylcellulose/0.25% Tween80) or RORγt inhibitors at indicated doses immediately prior to Aldara application. Ear thickness was measured using micro-calipers. Tissues were harvested on day 4, 2 hours following the last compound dose. Naïve mice are completely untreated, receiving neither control vehicle for IMQ nor Compound.\nFor RNA isolation & gene expression, ears are collected on day 4 in RNAlater (Qiagen) and stored at 4°C until processed. Ears were homogenized using Procellys 24 homogenizer & hard tissue homogenizing beads (Bertin Instruments), 2 cycles of 30 seconds @ 6000 rpm in RLT lysis buffer according to manufacturer’s instructions. RNA was isolated using RNAeasy Plus MiniPrep columns (Qiagen) and cDNA generated using SuperScript VILO cDNA Synthesis kit (Invitrogen). Gene expression was quantified using TaqMan Fast Master Mix & and TaqMan FAM-MGB probe sets (Applied Biosystems): Gapdh, Mm99999915_g1, Il17a, Mm00439618_m1, Il17f, Mm00521423_m1, Il22, Mm01226722_g1 & Bclxl, Mm00437783_m1. QPCR reactions were run on QuantStudio 7 instrument. Relative quantification and fold changes were calculated using ddCT values against Gapdh and normalized to control-treated animals. For PDAC xenografts, RNA was isolated from tumor sections using Qiagen RNeasy kit (cat#74106), then cDNA was prepared using 2 μg of RNA and the high capacity RNA to cDNA kit (Applied Biosystems, cat#4387406) as per manufacturer’s instructions. Biomarker expression was determined using Taqman gene expression probes (S1 Table) and Universal master mix (ThermoFisher Scientific cat#4305719) with expression levels normalized to Gapdh.\nFor cytokine production, ears are removed, split in half using forceps and floated, dermis side-down, in DMEM media (Gibco) and incubated at 37° C for 24 hours. Following incubation, media was removed and cytokine production assessed by Luminex assay (Bio-Rad Laboratories)."}, "[2]": {"system": "RORγt-dependent inflammation", "test": "RORγt/Th17-dependent inflammation in vivo, overall statement (acute and chronic settings)", "conditions": "with IC50 coverage alone (same level of response)"}, "[3]": {"system": "MOG35-55-induced EAE in C57BL/6 mice", "test": "Experimental autoimmune encephalomyelitis (EAE) model", "assay_type": "in vivo, mouse", "conditions": "for EAE clinical score (0-5): vehicle peak 3.08 ± 0.28", "procedure": "EAE studies were conducted at Hooke Laboratories. WT female C57BL/6 mice (Taconic Labs) 9 weeks of age were inoculated on day 0 with MOG35-55 peptide (Hooke Kit™ MOG35-55/CFA Emulsion PTX) (EK-2110, Hooke Laboratories, Lawrence MA) followed by intraperitoneal (IP) injections of pertussis toxin at 2 and 24 hours. Mice were treated twice daily (BID, starting at day 1) per os (PO) with vehicle (0.5% MC/0.25% Tween80) or RORγt inhibitors at indicated doses. FTY720 (Gilenya) was dosed once daily (QD) at 3 mg/kg starting at day 1. EAE clinical scores were evaluated daily and scored from 0–5 according to Hooke Lab EAE scoring guidelines http://hookelabs.com/services/cro/eae/MouseEAEscoring.html. Mean clinical scores & body weight loss were assessed and statistical significance calculated by Wilcoxon’s non-parametric or 2-tailed Student’s t-test, respectively. All studies performed were approved in accordance with the Institutional Animal Care and Use Committee of Bristol Myers Squibb and complied according to Bristol Myers Squibb guidelines."}}}
{"smiles": "O=C(O)[C@@H]1CCC(c2nn(C(=O)c3c(Cl)cccc3C(F)(F)F)c3cccc(F)c23)=C[C@H]1O", "note": "[Compound 3]", "values": [{"measurement": "viability of T020P PDOs", "setting": "PDAC PDO model T020P", "value": "did not decrease viability"}, {"measurement": "ear thickness", "setting": "[1]; 25 mg/kg PO", "value": "0.163 ± 0.002", "unit": "mm"}, {"measurement": "ear thickness", "setting": "[1]; 50 mg/kg PO", "value": "0.156 ± 0.001", "unit": "mm"}, {"measurement": "ear thickness", "setting": "[1]; 100 mg/kg PO", "value": "0.143 ± 0.002", "unit": "mm"}, {"measurement": "Th17-cytokine gene expression in ear skin", "setting": "[1]; 50 and 100 mg/kg dosed groups", "value": "reduced"}, {"measurement": "Bclxl expression in skin tissues", "setting": "[1]; oral administration, IMQ model", "value": "significantly reduced"}, {"measurement": "inhibition of Th17-dependent responses", "setting": "[2]", "value": "~ 45%"}, {"measurement": "EAE clinical score (0-5)", "setting": "[3]; 3 mg/kg BID PO", "value": "2.79 ± 0.25"}, {"measurement": "EAE clinical score (0-5)", "setting": "[3]; 10 mg/kg BID PO", "value": "2.32 ± 0.21"}, {"measurement": "significant disease onset", "setting": "[3]; 30 mg/kg BID PO, vehicle day 12", "value": 15, "unit": "days"}, {"measurement": "EAE clinical score (0-5)", "setting": "[3]; 30 mg/kg BID PO", "value": "1.5 ± 0.27"}, {"measurement": "body weight loss in EAE", "setting": "[3]; maintained for the duration of study", "value": "significant reductions in body weight loss"}]}
